Results from PMC2944077, “Placental Transfer of Conjugated Bisphenol A and Subsequent Reactivation in the Rat Fetus” (Environmental Health Perspectives, 2010).

Assays:
[1] = Uterine perfusion of pregnant rats with glucuronide substrate; distribution in maternal-placental-fetal unit; assay type: in vivo, rat; settings: for Amount of substrate (glucuronide) detected in perfusate (maternal side): 2 μM substrate 20 min (120 nmol total) then 70 min without substrate
Excerpt: Additional details of the surgical procedure are available in the Supplemental Material (doi:10.1289/ehp.0901575). In this perfusion system, the perfusate pumped into the abdominal aorta is circulated through one uterine artery– placenta–fetus–uterine vein unit and drips from the drain tube inserted in the caudal vein. After the perfusion, dams and fetuses were euthanized by incision of the caudal vena cava under anesthesia and tissues were collected.
We used modified Krebs-Ringer’s buffer (mKRB; 126 mM NaCl, 3 mM KCl, 1.2 mM KH2PO4, 1.3 mM MgSO4, 2.4 mM CaCl2, 10 mM glucose, 26 mM NaHCO3, 2.5% dextran from Leuconostoc mesenteroides, and 3% Dextran 70) as the perfusate. The perfusate was pumped at a constant rate of 3 mL/min. First, we perfused four animals in a preliminary group with 10 μM BPA-GA for 20 min to determine whether BPA-GA is transferred into the fetus across the placenta. In this group, we performed a preliminary perfusion with mKRB for 5 min to wash away blood, followed by 20 min inflow of mKRB containing 10 μM BPA-GA. After the perfusion, the fetus and amniotic fluid were collected.
To elucidate the kinetics of perfused BPA-GA, we used another group of four animals to compare the amount of BPA-GA in maternal veins with that in fetal tissue. After preliminary perfusion with mKRB for 5 min, pregnant rats were perfused with mKRB containing 2 μM BPA-GA for 20 min. Then, mKRB without BPA-GA was perfused for 70 min (a total of 90 min). From the beginning of the BPA-GA perfusion, the perfusate that drained from the caudal vena cava was collected from each animal at 5-min intervals for 90 min. At the end of perfusate collection, the fetus, amnion, amniotic fluid, uterus, and placenta were collected. We also performed a control study using 1-naphthol-glucuronide (1-NA-GA; Nacalai Tesque Inc., Kyoto, Japan) as the substrate. Four pregnant rats were used in each perfusion group. […]
Perfusates collected from the caudal vena cava were collected after uterine perfusion and prepared for HPLC and LC/TOF-MS analysis. Each perfusate sample was mixed with a 4-fold volume of acetonitrile and centrifuged at 13,000 rpm for 5 min at 4°C; each supernatant was then analyzed by HPLC.
To prepare tissues for HPLC and LC/TOF-MS analysis, we first added each sample to 0.3 mL methanol; the sample was homogenized and then sonicated for 5 min. The products were centrifuged at 13,000 rpm for 5 min at 4°C, and the supernatants were concentrated by solid-phase extraction using an Oasis HLB Plus cartridge (Waters Corp., Milford, MA, USA). The extracts were then analyzed by HPLC.
We used an HPLC system (Tosoh Corp., Tokyo, Japan) that consisted of a dual pump (DP-8020), a fluorescent photometer (FS-8020), and a column oven (CO-8020). Samples were separated at 40°C using a reverse-phase column (Unison UK-C18; Imtakt Corp., Kyoto, Japan) at a flow rate of 1.0 mL/min under a linear gradient of solution A (methanol/water = 24/76 vol/vol with 10 mM ammonium acetate) and solution B (methanol) for 20 min. BPA-GA was detected at excitation/emission of 275/308 nm and 1-NA-GA was detected at excitation/emission of 283/336 nm. The results were recorded using LC-8020 integration software (Tosoh Corp.); the elution peaks of BPA and BPA-GA were noted and the concentrations compared with the standards.
LC/TOF-MS was performed using the HPLC system described above and LCT premier XE (Waters Corp.). The flow rate of HPLC was 0.3 mL/min, and BPA-GA was monitored at m/z 403–404 by TOF-MS. In the present study, the limits of detection of BPA and BPA-GA in LC/TOF-MS were both 20 pmol/mL (data not shown).

[2] = parameters: method as in Krishnan et al. 1993; Nagel et al. 1997; settings: in vivo and in vitro; ref Krishnan et al. 1993; Nagel et al. 1997; cited from earlier work
[3] = oral 10 mg/kg BPA to GD16.0 rat mothers; ref Domoradzki et al. (2003); cited from earlier work
CD-1 mice = test system: CD-1 mice; parameters: method as in Timms et al. 2005; settings: 10 μg/kg BPA/day; ref Timms et al. 2005; cited from earlier work
UGT [4] = test: UGT enzyme analysis using hepatic microsomes; assay type: in vitro ADME, rat
Excerpt: We examined UGT enzymatic activity using hepatic microsomes. We prepared the microsomes from rat liver and performed UGT enzyme analysis as described previously by [Daidoji et al (2006)]. See the Supplemental Material (doi:10.1289/ehp.0901575) for details.
Figure 6 Metabolism of BPA-GA in the fetus. Abbreviations: H, fetal heart; L, fetal liver; ML, maternal liver; P, placenta. (A) Time course showing concentration of deconjugated BPA (mean ± SE) in the extract of cultured fetal liver and heart cells (see “Materials and Methods” for details; n = 5). (B) Expression of β-Gase in the fetal liver and heart on GD18.5 by RT-PCR. (C) Expression of UGT isoforms in ML, P, L, and […] determined by RT-PCR. […] Values shown are the concentration (mean ± SE) of glucuronide conjugates in microsome protein (nmol/μg) after 30-min reaction time (n = 5).

UGT [5] = settings: GD19.0; ref Matsumoto et al. 2002; cited from earlier work
[6] = test system: placental trophoblast primary cell culture; test: Deconjugation of BPA-GA in placental trophoblast primary cell culture; assay type: in vitro ADME, rat; settings: data not shown
Method: After co-incubation with BPA-GA, we detected deconjugated BPA in fetal liver and to a small degree in fetal heart (Figure 6A). We observed β-Gase expression in both tissues (Figure 6B). […] The difference in deconjugation rates among tissues in the present study may reflect uptake into cells via transporters rather than through β-Gase expression. Another possibility is that BPA-GA is deconjugated in the placenta and then resultant BPA is transferred into the fetus by passive diffusion. Therefore, we also examined deconjugation of BPA-GA in placental trophoblast primary cell culture. […] The possibility of transfer of placental deconjugated BPA could not be excluded completely in this experiment. Further work is required to examine the tissue-specific deconjugation of BPA-GA and the possibility of BPA transfer.

[7] = parameters: method as in Matthews et al. 2001; settings: ref Matthews et al. 2001; cited from earlier work
fetal heart cells = test: Incubation of fetal primary cell cultures with BPA-GA (deconjugation); assay type: in vitro ADME, rat; settings: 25 μM BPA-GA, 37°C, 10-120 min, GD18.5
Method: (§1) Fetal liver and heart tissues, collected on GD18.5, were washed twice with cold phosphate-buffered saline (PBS). Tissues for two fetuses were combined in one tube and then minced in cold PBS and centrifuged for 5 min at 100 × g at 4°C. After removing the supernatant, the pellets were resuspended in 5 mL William’s medium (Sigma-Aldrich, Inc., St. Louis, MO, USA) containing collagenase (350 U; Wako Pure Chemical Industries, Ltd., Osaka, Japan) and DNase I (375 U; Roche Diagnostics, Basel, Switzerland) and incubated for 30 min at 37°C. After the incubation, samples were centrifuged for 5 min at 100 × g at 4°C, and the supernatants were removed. The remaining cells, which had been isolated from two fetuses, were resuspended in 200 μL William’s medium with or without 25 μM BPA-GA and incubated at 37°C for 10, 30, 60, or 120 min. At each time point, cells and medium were pooled and extracts were prepared for HPLC as described above, by adding the same volume of methanol. All experiments were repeated five times. Values express the mean ± SE.

fetal liver cells = test: as above; assay type: in vitro ADME, rat; settings: 25 μM BPA-GA, 37°C, 10-120 min, GD18.5
Method: as §1

[8] = 2 μM substrate 20 min then 70 min without substrate, GD18.5, mean ± SD, n = 4

SMILES	Amount of substrate (glucuronide) detected in perfusate (maternal side) ([1]; GD18.5, mean ± SD, n = 4) [nmol]	Estrogenic activity [2]	Concentration of BPA-GA in the fetus compared with that in maternal plasma [3]	Effect of maternal exposure on prostate and urethra in male fetuses (CD-1 mice)	Fetal UGT activity toward BPA relative to nonpregnant adult rats (UGT [4]; late pregnancy, in theory, from 20% of maternal and 70% pregnant/nonpregnant) [%]	UGT activities in fetal liver microsomes compared with those in the mother (UGT [4]; liver microsomes, GD18.5)	Fetal UGT activity toward substrate relative to maternal microsomes (UGT [4]; liver microsomes, GD18.5, 30-min reaction)	UGT activity toward BPA in pregnant rats relative to nonpregnant adult rats (UGT [5])	Deconjugation of BPA-GA in trophoblast cells [6]	Share of the total amount of BPA-GA detected in the fetus ([1]; 2 μM BPA-GA 20 min, total perfusion 90 min)	BPA-GA in the collected perfusate after 70 min ([1]; 2 μM BPA-GA 20 min then perfusion without BPA-GA, n = 4)	Amount of deconjugated substrate (BPA or 1NA) detected in amniotic fluid [1, 8] [pmol]	Amount of deconjugated substrate (BPA or 1NA) detected in fetus [1, 8] [pmol]	Amount of substrate (glucuronide) detected in fetus [1, 8] [pmol]	Deconjugated BPA in the fetus and amniotic fluid after preliminary perfusion ([1]; 10 μM BPA-GA, 20-min inflow, HPLC)	BPA-GA in the fetus and amniotic fluid after preliminary perfusion ([1]; 10 μM BPA-GA, 20-min inflow, HPLC, confirmed by LC/TOF-MS)	Biological activity of metabolite [7]	Deconjugation of BPA-GA to BPA in fetal heart cells (fetal heart cells)	Deconjugation of BPA-GA to BPA in fetal liver cells (fetal liver cells)
O=C(O)[C@H]1O[C@@H](Oc2cccc3ccccc23)[C@H](O)[C@@H](O)[C@@H]1O [1-NA-GA, 1-naphthol-glucuronide, reference compound]	111.77 ± 2.58	–	–	–	–	–	–	–	–	–	–	–	–	–	–	–	–	–	–
CC(C)(c1ccc(O)cc1)c1ccc(O)cc1 [BPA, Bisphenol A]	–	weak estrogenic activity	approximately 0.1%	induces abnormal development of the prostate and urethra	< 15	quite low	about 20%	about 70%	–	–	–	–	–	–	–	–	–	–	–
CC(C)(c1ccc(O)cc1)c1ccc(O[C@@H]2O[C@H](C(=O)O)[C@@H](O)[C@H](O)[C@H]2O)cc1 [BPA-GA, BPA-glucuronide]	113.10 ± 6.92	–	–	–	–	–	–	–	did not observe deconjugation	about 0.09%	barely detected	31.35 ± 4.52	6.45 ± 1.45	109.26 ± 36.75	detected	detected	biologically inactive	to a much smaller degree	in a time-dependent manner
